According to article PMC7766225, “Structure-Based Discovery and Bioactivity Evaluation of Novel Aurora-A Kinase Inhibitors as Anticancer Agents via Docking-Based Comparative Intermolecular Contacts Analysis (dbCICA)” (Molecules, 2020):
Read-outs that look alike come from different tables or passages of the source.

Tests used:
Aurora-A kinase [1] = molecular target: T1, Aurora-A kinase (Homo sapiens, UniProt O14965); details: Table S1, ChEMBL, cited from earlier work
T1 construct: purchased Invitrogen (Carlsbad, CA, USA)
T1 sequence (O14965 1-403): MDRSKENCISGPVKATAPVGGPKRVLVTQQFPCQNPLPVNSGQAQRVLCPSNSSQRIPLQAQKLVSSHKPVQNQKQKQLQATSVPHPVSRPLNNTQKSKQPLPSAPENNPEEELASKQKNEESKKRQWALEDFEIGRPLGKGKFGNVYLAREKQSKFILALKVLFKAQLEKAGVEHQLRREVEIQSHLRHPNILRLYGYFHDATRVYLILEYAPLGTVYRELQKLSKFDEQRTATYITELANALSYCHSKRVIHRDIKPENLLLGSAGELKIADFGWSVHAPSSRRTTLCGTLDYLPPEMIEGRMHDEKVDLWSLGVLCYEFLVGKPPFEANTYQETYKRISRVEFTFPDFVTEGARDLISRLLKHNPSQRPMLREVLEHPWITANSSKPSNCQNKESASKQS

Aurora-A kinase [2] = molecular target: T1, Aurora-A kinase; experiment: FRET-based Z'-LYTE kinase enzyme inhibition assay; assay type: biochemical; details: 10 µM, duplicates, Z'-LYTE
Description: This bioassay was conducted using Z′-LYTE® kinase assay (Invitrogen, Carlsbad, CA, USA) [68, 69]. This biochemical assay depends on fluorescence emission as detection method utilizing a synthetic fluorescence resonance energy transfer (FRET) peptide with two fluorophores: coumarin that work as donor and fluorescein as acceptor [69]. Each hit or compound was dissolved in DMSO to form 10 mM stock solution. Hits were screened at 10 μM concentration. The bioassay was performed in black 384-well plate. For each assay, 100 nL of tested compound stock solution (10 mM) was mixed with 2.4 μL kinase buffer, 5 μL (peptide substrate/Aurora-A Kinase) mixture, and 2.5 μL ATP solution.
The tests were conducted in duplicates.

[3] = ref Pollard and Mortimore, 2009

Row | % Inhibition at 10 µM (Aurora-A kinase [2]) [%] | Compound | Ki (Aurora-A kinase [1]; ref Mortlock, et al., 2007) [nM] | other results
1 | – | COc1cc2c(Nc3cc(CC(=O)Nc4cccc(F)c4F)[nH]n3)ncnc2cc1OCCCN1CCC(CCO)CC1 [Compound 14] | 280 | –
2 | – | CCC(=O)Nc1ccc(Sc2nc(Nc3cc(C)[nH]n3)cc(C(C)(C)C)n2)cc1 [Compound 54] | – | Ki (Aurora-A kinase [1]; ref Bebbington, et al., 2009): 10 nM
3 | – | CCCN(CCO)CCCOc1cc2ncnc(Nc3cc(CC(=O)Nc4cccc(F)c4)[nH]n3)c2cc1OC [Compound 18] | 220 | –
4 | – | COc1cc2c(Nc3cc(CC(=O)Nc4cccc(C(F)(F)F)c4)[nH]n3)ncnc2cc1OCCCN1CCC(CO)CC1 [Compound 11] | 510 | –
5 | – | CNc1nc(C)c(-c2ccnc(Nc3cc(OC)c(OC)c(OC)c3)n2)s1 [Compound 69] | – | Ki (Aurora-A kinase [1]; ref Wang, et al., 2010): 1 nM
6 | – | COc1cc2c(Nc3cc(CC(=O)Nc4ccc(F)cc4)[nH]n3)ncnc2cc1OCCCN1CCC(CO)CC1 [Compound 4] | 2000 | –
7 | – | COc1cc2c(Nc3cc(CC(=O)Nc4cccc(O)c4)[nH]n3)ncnc2cc1OCCCN1CCC(CO)CC1 [Compound 9] | 4000 | –
8 | – | CCC(=O)Nc1ccc(Sc2nc(Nc3cc(C)[nH]n3)cc(N3CCC3)n2)cc1 [Compound 56] | – | Ki (Aurora-A kinase [1]; ref Bebbington, et al., 2009): 2.4 nM
9 | – | COc1cccc(NC(=O)Cc2cc(Nc3ncnc4cc(OCCCN5CCC(CO)CC5)c(OC)cc34)n[nH]2)c1 [Compound 10] | 1900 | –
10 | – | COc1cc2c(Nc3cc(CC(=O)Nc4ccccc4F)[nH]n3)ncnc2cc1OCCCN1CCC(CO)CC1 [Compound 2] | 1400 | –
11 | – | Cc1cc(Nc2nc(-c3ccncc3)nc3ccccc23)n[nH]1 [Compound 29] | – | Ki (Aurora-A kinase [1]; ref Bebbington, et al., 2009): 81 nM
12 | – | CCN(CCO)CCCOc1cc2ncnc(Nc3cc(CC(=O)Nc4cccc(F)c4F)[nH]n3)c2cc1OC [Compound 19] | 360 | –
13 | – | CCN(CCO)CCCOc1cc2ncnc(Nc3cc(CC(=O)Nc4cccc(F)c4)[nH]n3)c2cc1OC [Compound 17] | 190 | –
14 | – | COc1cc2c(Nc3cc(CC(=O)Nc4cccc(F)c4F)[nH]n3)ncnc2cc1OCCCN1CCN(CCO)CC1 [Compound 12] | 55 | –
15 | – | COc1cc(Nc2nccc(-c3sc(C)nc3C)n2)cc(OC)c1OC [Compound 68] | – | Ki (Aurora-A kinase [1]; ref Wang, et al., 2010): 0.4 nM
16 | – | CNc1ccc(Nc2nccc(-c3sc(C)nc3C)n2)cc1 [Compound 66] | – | Ki (Aurora-A kinase [1]; ref Wang, et al., 2010): 18 nM
17 | – | COc1cc2c(Nc3cc(CC(=O)Nc4ccccc4)[nH]n3)ncnc2cc1OCCCN1CCC(CO)CC1 [Compound 1] | 1600 | –
18 | – | COc1cc2c(Nc3cc(CC(=O)Nc4cccc(F)c4F)[nH]n3)ncnc2cc1OCCCN(CCO)CC(C)C [Compound 21] | 18 | –
19 | – | Cc1nc(C)c(-c2ccnc(Nc3ccc(N)cc3)n2)s1 [Compound 67] | – | Ki (Aurora-A kinase [1]; ref Wang, et al., 2010): 31 nM
20 | – | CC(=O)Nc1ccc(Sc2nc(Nc3cc(C)[nH]n3)cc(-c3ccccc3)n2)cc1 [Compound 51] | – | Ki (Aurora-A kinase [1]; ref Bebbington, et al., 2009): 2.4 nM

Row | % Inhibition at 10 µM (Aurora-A kinase [2]) [%] | Compound | Ki (Aurora-A kinase [1]; ref Mortlock, et al., 2007) [nM] | other results
21 | – | COc1cc2c(Nc3cc(CC(=O)Nc4cccc(F)c4)[nH]n3)ncnc2cc1OCCCN(C)CCO [Compound 16] | 65 | –
22 | – | COc1cc2c(Nc3cc(CC(=O)Nc4cccc(F)c4)[nH]n3)ncnc2cc1OCCCNCCO [Compound 15] | 690 | –
23 | – | CCCN(CCO)CCCOc1ccc2c(Nc3cc(CC(=O)Nc4cccc(F)c4F)[nH]n3)ncnc2c1 [Compound 23] | 350 | –
24 | – | COc1cc2c(Nc3cc(CC(=O)Nc4cccc(F)c4F)[nH]n3)ncnc2cc1OCCCN1CCC(CO)CC1 [Compound 5] | 410 | –
25 | – | COc1cc2c(Nc3cc(CC(=O)Nc4cccc(F)c4F)[nH]n3)ncnc2cc1OCCCN1CCC(O)CC1 [Compound 13] | 220 | –
26 | – | COc1cc2c(Nc3cc(CC(=O)Nc4cccc(Cl)c4)[nH]n3)ncnc2cc1OCCCN1CCC(CO)CC1 [Compound 7] | 450 | –
27 | -6 | O=C(CCCc1ccc([N+](=O)[O-])cc1)c1ccccc1 [Hit 153] | – | –
28 | 23 | NC[C@@H](O)c1ccc(Nc2ccnc3cc(Cl)ccc23)cc1 [Hit 104] | – | –
29 | 1 | C[n+]1c(/C=C/c2ccc([N+](=O)[O-])cc2)oc2ccccc21 [Hit 111] | – | –
30 | – | COc1cc2c(Nc3cc(CC(=O)Nc4cccc(C#N)c4)[nH]n3)ncnc2cc1OCCCN1CCC(CO)CC1 [Compound 8] | 2600 | –
31 | 12 | CC(=O)Nc1ccc(S(=O)(=O)NN=Cc2cc(Cl)ccc2O)cc1 [Hit 103] | – | –
32 | – | CCC(=O)Nc1ccc(Sc2nc(Nc3cc(C)[nH]n3)cc(-c3cccnc3)n2)cc1 [Compound 55] | – | Ki (Aurora-A kinase [1]; ref Bebbington, et al., 2009): 3.9 nM
33 | -7 | COc1ccc(NC(=O)c2ccc(Cl)cc2Cl)cc1 [Hit 108] | – | –
34 | – | Cc1cc(Nc2nc(-c3ccccc3)nc3ccccc23)n[nH]1 [Compound 27] | – | Ki (Aurora-A kinase [1]; [3]): 58 nM
35 | – | CCC(=O)Nc1ccc(Sc2nc(Nc3cc(C)[nH]n3)cc(N3CCNCC3)n2)cc1 [Compound 59] | – | Ki (Aurora-A kinase [1]; ref Bebbington, et al., 2009): 3.7 nM
36 | 8 | COc1ccc(C(=O)C=Cc2ccc3c(c2)OCO3)cc1 [Hit 113] | – | –
37 | 1 | COc1ccc(C(=O)[C@H](CN(C)C)c2ccc(OC)cc2)cc1 [Hit 105] | – | –
38 | – | CC(=O)Nc1ccc(Sc2nc(Nc3cc(C)[nH]n3)c3ccccc3n2)cc1 [Compound 28] | – | Ki (Aurora-A kinase [1]; [3]): 4 nM
39 | – | CCCN(CCO)CCCOc1ccc2c(Nc3cc(CC(=O)Nc4cccc(F)c4)[nH]n3)ncnc2c1 [Compound 25] | 980 | –
40 | 5 | COc1ccc(/C=N/N=C/c2ccc(OC)cc2)cc1 [Hit 82] | – | –

Row | % Inhibition at 10 µM (Aurora-A kinase [2]) [%] | Compound | Ki (Aurora-A kinase [1]; ref Mortlock, et al., 2007) [nM] | other results
41 | 3 | COc1ccc(C=NCCN=Cc2ccc(OC)cc2)cc1 [Hit 129] | – | –
42 | 7 | O=[N+]([O-])c1cccc(S(=O)(=O)Nc2ccc(Cl)cc2)c1 [Hit 118] | – | –
43 | 14 | O=C(CNCCCc1ccccc1)c1ccc(O)c(O)c1 [Hit 147] | – | –
44 | 7 | COc1ccc(CC(=O)c2ccc(OC)c(OC)c2)cc1OC [Hit 117] | – | –
45 | – | CCC(=O)Nc1ccc(Sc2nc(Nc3cc(C)[nH]n3)cc(N3CCN(C)CC3)n2)cc1 [Compound 60] | – | Ki (Aurora-A kinase [1]; ref Bebbington, et al., 2009): 1.6 nM
46 | – | CC(=O)Nc1ccc(Sc2nc(C)cc(Nc3cc(C)[nH]n3)n2)cc1 [Compound 50] | – | Ki (Aurora-A kinase [1]; ref Bebbington, et al., 2009): 18 nM
47 | -7 | Oc1ccc(/C=C/c2ccc(Cl)cc2)cc1 [Hit 151] | – | –
48 | -2 | COc1ccc(C(=O)OCc2ccc3c(c2)OCO3)cc1 [Hit 90] | – | –
49 | 4 | Cc1cc[n+](CC(=O)c2ccc([N+](=O)[O-])cc2)cc1 [Hit 146] | – | –
50 | 0 | CCCCNC(C(=O)c1ccc(OC)cc1)c1ccc(OC)cc1 (stereo not drawn) [Hit 144] | – | –
51 | -7 | COc1ccc([C@@H](O)Cc2ccc(Cl)cc2)cc1 [Hit 140] | – | –
52 | -1 | COc1ccc(CCCCCCc2ccc(OC)cc2)cc1 [Hit 115] | – | –
53 | 3 | CCOc1ccc(N=C(C)Nc2ccc(OCC)cc2)cc1 [Hit 110] | – | –
54 | -142 | COc1ccc(C(=O)Oc2ccc(C=O)cc2OC)cc1 [Hit 109] | – | –
55 | 3 | COc1ccc(C2OC(c3ccc(OC)cc3)c3ccccc32)cc1 (stereo not drawn) [Hit 133] | – | –
56 | 12 | CC(=NNS(=O)(=O)c1ccc([N+](=O)[O-])cc1)c1ccc(C)cc1 [Hit 86] | – | –
57 | -3 | COc1ccc(CC(=O)c2ccc(OC)cc2)cc1 [Hit 150] | – | –
58 | 6 | COc1ccc(NC(=O)CC(=O)Nc2ccc(OC)cc2)cc1 [Hit 101] | – | –
59 | 7 | COc1ccc(CNCCNCc2ccc(OC)cc2)cc1 [Hit 100] | – | –

Row | Compound | % Inhibition at 10 µM (Aurora-A kinase [2]) [%] | Ki (Aurora-A kinase [1]; ref Mortlock, et al., 2007) [nM] | other results
60 | COc1ccc(C(N)C(O)c2ccc(OC)cc2)cc1 (stereo not drawn) [Hit 145] | 0 | – | –
61 | COc1cccc(CC(C)NCC(O)c2ccc(O)c(O)c2)c1 (stereo not drawn) [Hit 152] | 1 | – | –
62 | CC(Cc1ccccc1)NCC(=O)c1ccc(O)c(O)c1 (stereo not drawn) [Hit 107] | 25 | – | –
63 | O=C(NC(Cc1ccc2c(c1)OCO2)C(=O)O)c1ccccc1 (stereo not drawn) [Hit 139] | 6 | – | –
